# Measurements as given in patent US20170367394A1, “PROCESS FOR INCREASING THE STABILITY OF A COMPOSITION COMPRISING POLYUNSATURATED OMEGA-6 FATTY ACIDS” (Evonik Degussa GmbH, priority 2014, published 2017).
# Assay: Peroxide Value (PV, primary oxidation products) according to Ph. Eur. 2.5.5, before and after storage at 50° C. exposed to air
# Format: physicochemical
# Conditions: as obtained (experiments 1-4)
# Method: An exemplary procedure for determining the Peroxide Value (PV) of a sample is performed as follows:
# Peroxide value=(S−B)*N thiosulfate*1000/weight of sample
# (§1) Primary oxidation products (hydroperoxides at double bonds) were quantified by determining the Peroxide Value (PV) according to Ph. Eur. 2.5.5 (01/2008:20505). Secondary oxidation products (carbonyl compounds) were quantified by determining the Anisidine Value (AV) according to Ph. Eur. 2.5.36 (01/2008:20536).
# (§2) 30 g each of the liquid ethyl arachidonic acid glycerin ester and the gamma-linolenic acid ethyl ester used in experiments 1 and 2 as well as of the arachidonic acids and the gamma-linolenic acid obtained in experiments 1 and 2 were filled into 500 ml Schott Duran glass bottles.
# (§3) About 30 g each of the solid lysine-salts ARA-Lys and GLA-Lys obtained in experiments 3 and 4 were filled Schott Duran glass bottles.
# (§4) All of the bottles were placed together with opened lids in a drying oven with an opened ventilation valve at 50° C. and stored in the dark under these conditions for 81 days.
row,Compound,Peroxide Value
1,Gamma-Linolenic acid-L-Lysine Salt [GLA-Lys],1.0 mmol/kg
2,"CCCCC/C=C\C/C=C\C/C=C\C/C=C\CCCC(=O)O [ARA-OH, all-cis-5,8,11,14-eicosatetraenoic acid]",7.2 mmol/kg
3,"CCCCC/C=C\C/C=C\C/C=C\CCCCC(=O)O [GLA-OH, gamma-linolenic acid]",5.6 mmol/kg
4,Arachidonic acid-L-Lysine Salt [ARA-Lys],< 1 mmol/kg

# Same assay, conditions: commercially available starting material as supplied
row,Peroxide Value,Compound
1,52.1 mmol/kg,"CCCCC/C=C\C/C=C\C/C=C\CCCCC(=O)OCC [GLA-OEt, gamma-linolenic acid ethyl ester]"

# Same assay, conditions: t = 0, before storage
row,Peroxide Value (PV),Compound
1,52.1 mmol/kg,"CCCCC/C=C\C/C=C\C/C=C\CCCCC(=O)OCC [GLA-OEt, gamma-linolenic acid ethyl ester]"
2,7.2 mmol/kg,"CCCCC/C=C\C/C=C\C/C=C\C/C=C\CCCC(=O)O [ARA-OH, all-cis-5,8,11,14-eicosatetraenoic acid]"
3,5.6 mmol/kg,"CCCCC/C=C\C/C=C\C/C=C\CCCCC(=O)O [GLA-OH, gamma-linolenic acid]"

# Continued, compound first:
row,Compound,Peroxide Value (PV)
1,Gamma-Linolenic acid-L-Lysine Salt [GLA-Lys],1.0 mmol/kg
2,Arachidonic acid-L-Lysine Salt [ARA-Lys],<1 mmol/kg

# Same assay, conditions: t = 81 days; open bottles, 50° C., exposed to air, in the dark
row,Peroxide Value (PV),Compound
1,86.3 mmol/kg,"CCCCC/C=C\C/C=C\C/C=C\CCCCC(=O)OCC [GLA-OEt, gamma-linolenic acid ethyl ester]"
2,5.8 mmol/kg,"CCCCC/C=C\C/C=C\C/C=C\C/C=C\CCCC(=O)O [ARA-OH, all-cis-5,8,11,14-eicosatetraenoic acid]"
3,1.3 mmol/kg,"CCCCC/C=C\C/C=C\C/C=C\CCCCC(=O)O [GLA-OH, gamma-linolenic acid]"

# Continued, compound first:
row,Compound,Peroxide Value (PV)
1,Gamma-Linolenic acid-L-Lysine Salt [GLA-Lys],<1 mmol/kg
2,Arachidonic acid-L-Lysine Salt [ARA-Lys],<1 mmol/kg

# Assay: Oligomer content by gel-chromatography (GPC, RI detector)
# Format: physicochemical
# Conditions: as obtained
# Method: Oligomeric PUFA constituents as well as their derivatives (collectively referred to as oligomer content) were quantified by gel-chromatographic means (GPC, styroldivinylbenzene-phase with tetrahydrofuran containing trifluoroacetic acid used as eluent). A refractive index (RI) detector was used for detection. Due to the fact that specific response factors of the constituents of the samples were unknown, proportions were calculated based upon fractional proportions of the total area of chromatograms.
row,Compound,Oligomer content
1,Gamma-Linolenic acid-L-Lysine Salt [GLA-Lys],0.6 area-%
2,"CCCCC/C=C\C/C=C\C/C=C\CCCCC(=O)O [GLA-OH, gamma-linolenic acid]",0.3 area-%
3,Arachidonic acid-L-Lysine Salt [ARA-Lys],1.1 area-%

# Assay: Anisidine Value (AV, secondary oxidation products) according to Ph. Eur. 2.5.36, before and after storage at 50° C. exposed to air
# Format: physicochemical
# Conditions: as obtained / as supplied (experiments 1-4)
# Method: An exemplary procedure for determining the Anisidine Value (AV) of a sample is performed as follows:
# The anisidine value is defined as 100 times the optical density measured in a 1 cm cell of a solution containing 1 g of the substance to be examined in 100 ml of a mixture of solvents and reagents according to the following method. Carry out the operations as rapidly as possible, avoiding exposure to actinic light.
# Test solution (a): Dissolve 0.500 g of the substance to be examined in trimethylpentane and dilute to 25.0 ml with the same solvent.
# Test solution (b): To 5.0 ml of test solution (a) add 1.0 ml of a 2.5 g/I solution of p-anisidine in glacial acetic acid, shake and store protected from light.
# Reference solution: To 5.0 ml of trimethylpentane add 1.0 ml of a 2.5 g/I solution of p-anisidine in glacial acetic acid, shake and store protected from light. Measure the absorbance of test solution (a) at the maximum at 350 nm using trimethylpentane as the compensation liquid. Measure the absorbance of test solution (b) at 350 nm exactly 10 min after its preparation, using the reference solution as the compensation liquid. Calculate the anisidine value (AV) from the expression:
# as §1, §2, §3, §4
row,Anisidine Value,Compound
1,19.1,"CCCCC/C=C\C/C=C\C/C=C\CCCCC(=O)OCC [GLA-OEt, gamma-linolenic acid ethyl ester]"
2,4.2,"CCCCC/C=C\C/C=C\C/C=C\C/C=C\CCCC(=O)O [ARA-OH, all-cis-5,8,11,14-eicosatetraenoic acid]"
3,7.6,"CCCCC/C=C\C/C=C\C/C=C\CCCCC(=O)O [GLA-OH, gamma-linolenic acid]"

# Further lines, the compound ahead of its results:
row,Compound,Anisidine Value
1,Gamma-Linolenic acid-L-Lysine Salt [GLA-Lys],5.4
2,Arachidonic acid-L-Lysine Salt [ARA-Lys],1

# Same assay, conditions: t = 0, before storage
row,Anisidine Value (AV),Compound
1,19.1 A/g,"CCCCC/C=C\C/C=C\C/C=C\CCCCC(=O)OCC [GLA-OEt, gamma-linolenic acid ethyl ester]"
2,4.2 A/g,"CCCCC/C=C\C/C=C\C/C=C\C/C=C\CCCC(=O)O [ARA-OH, all-cis-5,8,11,14-eicosatetraenoic acid]"
3,7.6 A/g,"CCCCC/C=C\C/C=C\C/C=C\CCCCC(=O)O [GLA-OH, gamma-linolenic acid]"

# The remaining lines, values behind:
row,Compound,Anisidine Value (AV)
1,Gamma-Linolenic acid-L-Lysine Salt [GLA-Lys],5.4 A/g
2,Arachidonic acid-L-Lysine Salt [ARA-Lys],1 A/g

# Same assay, conditions: t = 81 days; open bottles, 50° C., exposed to air, in the dark
row,Anisidine Value (AV),Compound
1,1237 A/g,"CCCCC/C=C\C/C=C\C/C=C\CCCCC(=O)OCC [GLA-OEt, gamma-linolenic acid ethyl ester]"
2,211 A/g,"CCCCC/C=C\C/C=C\C/C=C\C/C=C\CCCC(=O)O [ARA-OH, all-cis-5,8,11,14-eicosatetraenoic acid]"
3,137 A/g,"CCCCC/C=C\C/C=C\C/C=C\CCCCC(=O)O [GLA-OH, gamma-linolenic acid]"

# Further lines, the compound ahead of its results:
row,Compound,Anisidine Value (AV)
1,Gamma-Linolenic acid-L-Lysine Salt [GLA-Lys],<1 A/g
2,Arachidonic acid-L-Lysine Salt [ARA-Lys],<1 A/g
